# Data reported in PMC7591795, “Humulone Modulation of GABAA Receptors and Its Role in Hops Sleep-Promoting Activity” (Frontiers in Neuroscience, 2020).
# “Also recorded” adds a separate entry of the source. Read-outs that look alike come from different tables or passages of the source.
# How the values were obtained:
# [1] = system: native αβγ2 GABAA receptors, classical benzodiazepine binding site; set-up: method as in Benkherouf et al., 2019, 2020; conditions: ref Benkherouf et al., 2019, 2020, cited from earlier work
# [2] = system: native GABAA receptors in rat forebrain membranes; set-up: method as in Benkherouf et al., 2020; conditions: ref Benkherouf et al., 2020, cited from earlier work
# [3] = system: native GABAA receptors in rat forebrain membranes; assay: [3H]EBOB binding assay, rat forebrain membranes; conditions: each compound 1 μM, GABA 3 μM, n = 3
# Method: (§1) The protein concentrations of brain membranes were determined with the Bio-Rad Coomassie blue dye-based protein assay kit (Hercules, CA, United States) as per the manufacturer’s protocol. Transfected HEK293 cells were harvested 48 h after transfection using a detaching buffer (10 mM Tris-HCl, 0.15 M NaCl, 2 mM EDTA) and centrifuged at 20,000 g for 10 min at +4 °C. The resulting pellets were suspended in the assay buffer for binding assays.
# (§2) In humulone concentration series with recombinant α6β3, α6β3γ2S, and α6β3δ receptors, HEK293 cell membranes were incubated in the same above conditions for 120 min with [^3H]EBOB (1 nM) and different concentrations of humulone (30 nM–30 μM) in the presence or absence of ethanol (30 mM). […] Picrotoxin (100 μM) was used to determine the non-specific binding in all assays.
# (§3) Membrane samples were filtered through Whatman GF/B glass fiber filters (Whatman International Ltd., Maidstone, United Kingdom) using a Brandel Cell Harvester (model M-24, Gaithersburg, MD, United States). The filters were rinsed three times with 5 mL of ice-cold 10 mM Tris-HCl, pH 7.4 buffer. Air-dried filters were immersed in 3 mL of Hidex AquaLight Beta scintillation liquid and radioactivity was determined in Hidex 600 SL liquid scintillation counter (Hidex, Turku, Finland).
# GABAA receptors = system: GABAA receptors; set-up: method as in Benkherouf et al., 2020; conditions: ref Benkherouf et al., 2020; cited from earlier work
# [4] = target: T1, recombinant α6β3γ2 GABAA receptors (Rattus norvegicus, UniProt P18508+P30191+P63079); assay: [3H]EBOB binding assay, recombinant α6β3γ2 receptors in HEK293 cell membranes; conditions: GABA 3 μM
# T1 construct: expressed in transfected cells; host or cells: HEK293 cells, transient CaPO4 transfection, pRK5 plasmids; cell membranes used
# T1 sequence (P30191 20-453): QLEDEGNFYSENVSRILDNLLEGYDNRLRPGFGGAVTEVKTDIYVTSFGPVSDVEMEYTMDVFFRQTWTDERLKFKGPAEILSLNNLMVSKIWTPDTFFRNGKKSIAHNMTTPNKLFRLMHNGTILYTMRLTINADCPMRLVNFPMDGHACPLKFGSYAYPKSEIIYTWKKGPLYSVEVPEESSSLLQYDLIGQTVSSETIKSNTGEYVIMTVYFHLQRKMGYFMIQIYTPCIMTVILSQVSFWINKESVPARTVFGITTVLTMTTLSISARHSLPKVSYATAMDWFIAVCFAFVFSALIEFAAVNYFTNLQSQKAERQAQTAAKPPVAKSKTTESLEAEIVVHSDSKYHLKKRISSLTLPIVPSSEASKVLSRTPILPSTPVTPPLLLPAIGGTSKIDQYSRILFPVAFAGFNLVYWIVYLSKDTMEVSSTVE
# T1 sequence (P63079 26-473): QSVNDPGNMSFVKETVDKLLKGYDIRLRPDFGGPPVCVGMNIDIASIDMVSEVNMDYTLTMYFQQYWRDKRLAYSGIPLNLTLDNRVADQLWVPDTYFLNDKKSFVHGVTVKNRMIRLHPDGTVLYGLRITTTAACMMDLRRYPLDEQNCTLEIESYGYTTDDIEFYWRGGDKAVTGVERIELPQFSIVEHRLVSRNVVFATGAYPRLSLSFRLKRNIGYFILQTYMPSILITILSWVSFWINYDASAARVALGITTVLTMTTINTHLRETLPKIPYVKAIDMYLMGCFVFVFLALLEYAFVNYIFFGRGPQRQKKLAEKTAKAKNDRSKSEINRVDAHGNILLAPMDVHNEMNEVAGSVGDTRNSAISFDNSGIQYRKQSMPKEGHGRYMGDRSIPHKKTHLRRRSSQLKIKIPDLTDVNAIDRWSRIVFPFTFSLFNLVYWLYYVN
# T1 sequence (P18508 39-466): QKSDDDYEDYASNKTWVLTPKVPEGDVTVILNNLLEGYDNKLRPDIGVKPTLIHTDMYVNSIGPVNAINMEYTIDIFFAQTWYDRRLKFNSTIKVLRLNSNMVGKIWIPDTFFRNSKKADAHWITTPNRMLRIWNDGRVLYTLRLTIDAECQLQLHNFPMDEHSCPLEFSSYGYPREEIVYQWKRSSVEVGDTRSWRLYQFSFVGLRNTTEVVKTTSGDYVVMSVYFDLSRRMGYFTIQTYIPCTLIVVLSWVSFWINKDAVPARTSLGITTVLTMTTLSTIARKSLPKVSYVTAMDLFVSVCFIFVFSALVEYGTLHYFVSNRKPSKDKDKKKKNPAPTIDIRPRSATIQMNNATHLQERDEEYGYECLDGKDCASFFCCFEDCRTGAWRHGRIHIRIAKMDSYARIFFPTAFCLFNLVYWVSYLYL
# Method: (§4) The cells were divided and plated on 150 mm culture dishes for binding assays and 12 mm coverslips in 24-well cell culture plates for electrophysiology 24 h before transfection.
# (§5) The cells were transiently transfected with rat cDNAs encoding GABAA receptor subunits (α1, L08490; α6, L08495; β3, X15468; γ2S, L08497; δ, L08496) in pRK5 plasmids under the control of CMV promoter ([Uusi-Oukari et al., 2000]). The plasmids were used in 1:1 and 1:1:1 ratio for transfections containing α1β3γ2S, α6β3, α6β3γ2S, and α6β3δ receptor subtypes. […] (Supplementary Figure S1). For electrophysiology, K4® transfection system (Biontex, München, Germany) was used according to the manufacturer’s protocol to increase expression efficiency and cell viability. […] The medium was changed 24 h after transfection and all experiments were performed 48 h after transfection.
# as §1, §2, §3
# [5] = system: native GABAA receptors in rat cerebellar membranes; assay type: binding
# Method: as §1, §2, §3
# [6] = target: T2, recombinant α6β3δ GABAA receptors (Rattus norvegicus, UniProt P18506+P30191+P63079); assay: [3H]EBOB binding assay, recombinant α6β3δ receptors in HEK293 cell membranes; conditions: GABA 3 μM
# T2 construct: expressed in transfected cells; host or cells: HEK293 cells, transient CaPO4 transfection, pRK5 plasmids; cell membranes used
# T2 sequence (P30191 20-453): as the sequence (P30191 20-453) above
# T2 sequence (P63079 26-473): as the sequence (P63079 26-473) above
# T2 sequence (P18506 25-449): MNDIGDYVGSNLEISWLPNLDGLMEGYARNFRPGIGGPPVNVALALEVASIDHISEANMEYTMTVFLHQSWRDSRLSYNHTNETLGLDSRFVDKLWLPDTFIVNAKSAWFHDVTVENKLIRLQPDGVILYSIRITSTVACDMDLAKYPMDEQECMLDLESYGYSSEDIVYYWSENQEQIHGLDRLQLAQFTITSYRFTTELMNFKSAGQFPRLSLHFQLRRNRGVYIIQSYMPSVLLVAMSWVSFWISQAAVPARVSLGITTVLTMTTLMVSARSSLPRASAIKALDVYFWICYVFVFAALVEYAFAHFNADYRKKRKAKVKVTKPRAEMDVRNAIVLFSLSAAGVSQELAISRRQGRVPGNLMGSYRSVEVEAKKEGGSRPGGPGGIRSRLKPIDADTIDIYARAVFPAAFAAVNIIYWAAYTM
# Method: as §4, §5, §1, §2, §3
# [7] = target: T3, recombinant α6β3 GABAA receptors (Rattus norvegicus, UniProt P30191+P63079); assay: [3H]EBOB binding assay, recombinant α6β3 receptors in HEK293 cell membranes; conditions: GABA 3 μM
# T3 construct: expressed in transfected cells; host or cells: HEK293 cells, transient CaPO4 transfection, pRK5 plasmids (1:1); cell membranes used
# T3 sequence (P30191 20-453): as the sequence (P30191 20-453) above
# T3 sequence (P63079 26-473): as the sequence (P63079 26-473) above
# Method: as §4, §5, §1, §2, §3
# [8] = target: T4, recombinant α1β3γ2 GABAA receptors (Rattus norvegicus, UniProt P18508+P62813+P63079); assay: Whole-cell patch-clamp of GABA-induced currents in transfected HEK293 cells; assay type: cell-based; conditions: humulone 10 μM, GABA 1 μM, 1 min application, −60 mV, n = 8 cells
# T4 construct: expressed in transfected cells; host or cells: HEK293 cells, transient transfection (K4 transfection system), pRK5 plasmids; EGFP co-transfected from a separate pWPI plasmid
# T4 sequence (P62813 28-455): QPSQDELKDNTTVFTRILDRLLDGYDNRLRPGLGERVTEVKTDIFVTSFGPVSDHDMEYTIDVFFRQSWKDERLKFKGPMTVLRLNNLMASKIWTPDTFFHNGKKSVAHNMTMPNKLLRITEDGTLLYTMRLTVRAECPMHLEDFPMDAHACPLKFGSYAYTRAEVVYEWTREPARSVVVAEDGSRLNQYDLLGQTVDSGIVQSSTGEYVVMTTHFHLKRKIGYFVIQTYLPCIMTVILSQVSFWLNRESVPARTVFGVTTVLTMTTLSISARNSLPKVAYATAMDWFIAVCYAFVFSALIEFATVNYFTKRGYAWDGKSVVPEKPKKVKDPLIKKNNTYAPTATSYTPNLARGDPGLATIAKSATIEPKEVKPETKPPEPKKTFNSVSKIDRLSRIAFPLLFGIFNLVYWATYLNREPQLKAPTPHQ
# T4 sequence (P63079 26-473): as the sequence (P63079 26-473) above
# T4 sequence (P18508 39-466): as the sequence (P18508 39-466) above
# Method: Human embryonic kidney (HEK) 293 cells (Sigma- Aldrich, St Louis, MO, United States) were maintained in Dulbecco’s modified Eagle’s medium supplemented with 10% fetal bovine serum (Gibco, Gaithersburg, MD; United States), 50 U/mL penicillin and 50 μg/mL streptomycin (Sigma-Aldrich, St Louis, MO, United States) under standard growth conditions at 37°C, 95% humidity and 5% CO2. The cells were divided and plated on 150 mm culture dishes for binding assays and 12 mm coverslips in 24-well cell culture plates for electrophysiology 24 h before transfection.
# The cells were transiently transfected with rat cDNAs encoding GABAA receptor subunits (α1, L08490; α6, L08495; β3, X15468; γ2S, L08497; δ, L08496) in pRK5 plasmids under the control of CMV promoter ([Uusi-Oukari et al., 2000]). The plasmids were used in 1:1 and 1:1:1 ratio for transfections containing α1β3γ2S, α6β3, α6β3γ2S, and α6β3δ receptor subtypes. For radioligand binding, CaPO4 precipitation method was used essentially as described earlier ([Lüddens and Korpi, 1997]). […]
# The cells were continuously perfused with external HEK-Krebs solution containing (in mM): 140 NaCl, 4.7 KCl, 1.2 MgCl2, 2.52 CaCl2, 11 glucose, and 5 HEPES, pH 7.4 adjusted with […]. […] The external solution and drug solutions were driven by gravity at the flow rate of 5 mL/min and the current responses were recorded at room temperature (20–22°C).
# BALB/cAnNRj mice [9] = assay: Open field test (spontaneous locomotor activity); assay type: in vivo
# Method: Each mouse was then placed individually into the center of a brightly illuminated white Plexiglass arena (50 × 50 × 38 cm) and recorded continuously for 15 min with Ethovision version 13 tracking system (Noldus, Wageningen, The Netherlands). The parameters of locomotor activity such as distance and velocity were quantified and analyzed for the whole and subsections of the arena. All arena surfaces were thoroughly cleaned with 70% ethanol and dried between each tested subject.
# BALB/cAnNRj mice [10] = assay: Pentobarbital-induced sleep test
# Method: As an index of drug-induced CNS inhibition, sleep latency (time between pentobarbital administration and loss of righting reflex) and duration of sleep (time between loss and recovery of righting reflex) were measured with a chronometer for each mouse. The recovery of the righting reflex was confirmed by the ability of the mice to re-right 3 times within 1 min. The drugs were freshly prepared before use, and the total injection volume (13 mL/kg) was retained constant.
# mice = system: mice; set-up: method as in Schiller et al., 2006; conditions: ref Schiller et al., 2006, cited from earlier work
# BALB/cAnNRj mice [11] = assay: Ethanol-induced sleep test; conditions: ethanol 3.5 g/kg i.p.; for duration of sleep induced by ethanol: vs control
# rats = conditions: ref Bejeuhr, 1993, cited from earlier work
# [12] = set-up: method as in Fritsch and Shellhammer, 2007; conditions: ref Fritsch and Shellhammer, 2007; cited from earlier work
# [13] = ethanol 30 mM co-incubated with humulone 1 μM
# [14] = humulone 10 mg/kg i.p. vs control
# [15] = humulone 20 mg/kg i.p., 45 min after administration, 15 min observation, vs vehicle, p < 0.01
# [16] = humulone 10 mg/kg i.p., pentobarbital sodium 35 mg/kg i.p.
compound,measurement,setting,value
"CC(C)=CCc1c(O)cc2c(c1O)C(=O)C[C@@H](c1ccc(O)cc1)O2 [6PN, 6-prenylnaringenin]",displacement of [3H]Ro 15-4513 binding (benzodiazepine binding site),[1],remarkably more efficient
same,sensitivity of modulatory effect on [3H]EBOB binding to flumazenil antagonism,[2],insensitivity
same,[3H]EBOB displacement normalized to the maximum radioligand binding in the presence of 3 μM GABA alone,[3],14.2 ± 1.4%
"COc1cc(O)c(CC=C(C)C)c2c1C(=O)CC(c1ccc(O)cc1)O2 (stereo not drawn) [IXN, isoxanthohumol]",[3H]EBOB displacement normalized to the maximum radioligand binding in the presence of 3 μM GABA alone,[3],14.4 ± 0.9%
CCC(C)C(=O)C1=C(O)C(CC=C(C)C)=C(O)C(O)(CC=C(C)C)C1=O (stereo not drawn) [adhumulone],modulatory effects on GABAA receptors,GABAA receptors,weak modulatory effects
CC(C)=CCC1=C(O)C(O)(CC=C(C)C)C(=O)C(C(=O)C(C)C)=C1O (stereo not drawn) [cohumulone],modulatory effects on GABAA receptors,GABAA receptors,weak modulatory effects
CCO [ethanol],ethanol enhancement of humulone-mediated [3H]EBOB displacement,[4]; [13],did not alter; also recorded: did not enhance
same,effect of ethanol alone on GABA-induced [3H]EBOB binding,[4]; ethanol 30 mM,unaffected
same,effect of ethanol solely on [3H]EBOB binding,[5],neither displaces nor modulates
same,ethanol enhancement of humulone-mediated [3H]EBOB displacement,"[6]; ethanol 30 mM co-incubated with humulone 1 μM, α6β3δ",did not significantly enhance
same,effect of ethanol alone on GABA-induced [3H]EBOB displacement,"[6]; ethanol 30 mM, α6β3δ",no effect; also recorded: unaffected
same,ethanol enhancement of humulone-mediated [3H]EBOB displacement,[7]; [13],did not alter; also recorded: did not enhance
same,effect of ethanol alone on GABA-induced [3H]EBOB binding,[7]; ethanol 30 mM,unaffected
CC(C)=CCC1=C(O)[C@@](O)(CC=C(C)C)C(=O)C(C(=O)CC(C)C)=C1O [humulone],"potentiation of GABA-induced peak current amplitude, normalized to 1 μM GABA alone",[8],158 ± 41%
same,displacement of [3H]Ro 15-4513 binding (benzodiazepine binding site),[1],very weak displacement
same,displacement of [3H]Ro 15-4513 binding (benzodiazepine binding site),[1]; listed as humulone fraction,low potency
same,concentration at which potentiation of GABA-induced [3H]EBOB displacement was observed,[4],≥ 10 µM
same,effect on [3H]EBOB displacement induced by GABA,[4]; humulone 1 μM,absent
same,IC50,"[2]; rat forebrain membranes, read-out: IC50, modulation of [3H]EBOB binding",3.2 ± 0.4 µM
same,sensitivity of modulatory effect on [3H]EBOB binding to flumazenil antagonism,[2],insensitive
same,sensitivity of modulatory effect on [3H]EBOB binding to flumazenil antagonism,[2]; listed as humulone fraction,insensitivity
same,significant difference in average velocity in open field,BALB/cAnNRj mice [9]; [14],not observed
same,significant difference in total distance traveled in open field,BALB/cAnNRj mice [9]; [14],not observed
same,average velocity in open field,BALB/cAnNRj mice [9]; [15],lower
same,total distance traveled in open field,BALB/cAnNRj mice [9]; [15],shorter
same,time spent in periphery and center in open field,"BALB/cAnNRj mice [9]; humulone 10 and 20 mg/kg i.p. vs vehicle, Supplementary Figure S3",no differences
same,[3H]EBOB displacement normalized to the maximum radioligand binding in the presence of 3 μM GABA alone,[3],13.5 ± 1.5%
same,"extent of humulone non-competitive synergy with ethanol, cerebellum compared to forebrain","[5]; humulone 1 μM + ethanol 30 mM, from Table 1",11.2%
same,concentration at which potentiation of GABA-induced [3H]EBOB displacement was evident,[6]; α6β3δ,≥ 1 µM
same,increase in potency in α6β3δ compared to α6β3 receptors,[6]; ratio of IC50 values,6.7 fold
same,increase in potency in α6β3δ compared to α6β3γ2 receptors,[6]; ratio of IC50 values,5.8 fold
same,concentration at which potentiation of GABA-induced [3H]EBOB displacement was observed,[7],≥ 10 µM
same,effect on [3H]EBOB displacement induced by GABA,[7]; humulone 1 μM,absent
same,duration of sleep induced by pentobarbital,BALB/cAnNRj mice [10]; [16],not observed
same,sleep latency induced by pentobarbital,BALB/cAnNRj mice [10]; [16],not observed
same,duration of sleep induced by pentobarbital,"BALB/cAnNRj mice [10]; humulone 20 mg/kg i.p., 45 min before pentobarbital sodium 35 mg/kg i.p., vs control, p < 0.001",prolonged
same,sleep latency induced by pentobarbital,"BALB/cAnNRj mice [10]; humulone 20 mg/kg i.p., 45 min before pentobarbital sodium 35 mg/kg i.p., vs control, p < 0.01",significantly decreased
same,duration of sleep induced by ketamine,mice; humulone component in alpha acid extract at 21 mg/kg,increase
same,"duration of sleep induced by ketamine, additional effect at higher dose",mice; humulone component in alpha acid extract at 42 mg/kg,no additional effect
same,duration of sleep induced by ethanol,"BALB/cAnNRj mice [11]; humulone 10 mg/kg i.p., p < 0.05",significantly increased
same,duration of sleep induced by ethanol,"BALB/cAnNRj mice [11]; humulone 20 mg/kg i.p., p < 0.001",significantly increased
same,onset of sleep induced by ethanol,BALB/cAnNRj mice [11]; humulone 10 or 20 mg/kg i.p.,no effect
same,LD50,rats; i.m. (rats),600 mg/kg/b.w.
same,LD50,"rats; p.o., rodents","1,500 mg/kg/b.w."
same,solubility in beer,[12],14 µg/mL
